Legend:
P450RAI-1 = biological target: T1, P450RAI-1 (Homo sapiens, UniProt O43174); test: P450RAI-1 cell-based inhibitor assay; conditions: P450RAI-1 stably transfected HeLa cells, [3H]-RA metabolism, 3 hours at 37° C.; read-out: P450RAI INHIBITION DATA INTACT HELA IC50
T1 construct: expressed in transfected cells; host or cells: HeLa cells, stably transfected, hygromycin selection
T1 sequence (O43174 1-497): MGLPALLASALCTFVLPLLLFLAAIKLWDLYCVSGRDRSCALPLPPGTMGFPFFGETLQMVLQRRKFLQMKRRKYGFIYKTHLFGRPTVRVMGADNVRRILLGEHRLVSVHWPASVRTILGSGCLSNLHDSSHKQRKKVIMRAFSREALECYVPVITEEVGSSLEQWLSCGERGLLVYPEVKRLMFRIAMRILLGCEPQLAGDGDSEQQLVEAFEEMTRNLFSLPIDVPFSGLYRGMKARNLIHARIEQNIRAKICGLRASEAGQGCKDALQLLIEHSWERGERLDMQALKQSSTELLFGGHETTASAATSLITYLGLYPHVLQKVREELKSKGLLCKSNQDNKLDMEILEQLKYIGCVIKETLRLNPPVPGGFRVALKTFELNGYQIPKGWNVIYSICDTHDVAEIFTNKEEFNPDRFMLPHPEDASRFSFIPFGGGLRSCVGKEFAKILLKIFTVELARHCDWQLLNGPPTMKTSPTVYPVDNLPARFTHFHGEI
Description: P450RAI-1 stably transfected HeLa cells are maintained in […] tissue culture dishes in Modified Eagle's Medium (MEM) containing 10% Fetal Bovine Serum (FBS) and 100 μg/ml hygromycin. Exponentially growing cells are harvested by incubating in trypsin. Cells are then washed with 1× Phosphate Buffered Saline (PBS) and plated in a 48-well plate at 5×10^5 cells in 0.2 ml MEM medium containing 10% FBS and 0.05 μCi[^3H]-RA in the presence or absence of increasing concentrations of the test compounds. The compounds are diluted in 100% DMSO and then added in triplicate wells at either 10, 1 or 0.1 μM final concentration. As a positive control for RA metabolism inhibition, cells are also incubated with ketoconazole at 100, 10 and 1 μM. Cell are incubated for 3 hours at 37° C. […] The water soluble radioactivity is quantified using a β-scintillation counter. IC50 values represent the concentration of inhibitor required to inhibit all-trans-RA metabolism by 50 percent and are derived manually from log-transformed data.

skin of hairless mice = test: topical skin irritation test in hairless mice; format: in vivo, mouse; conditions: topical in acetone, once daily days 1 through 5, mean ±SD, range 0-21
From the text: Mice were housed individually throughout the dosing period.
Doses are disclosed as nmol/25 g.
The grading scale used is as follows:
Values can range from 0-9.
Values can range from 0-8.

RARβ = biological target: T2, RARβ (Homo sapiens, UniProt P10826); test: ligand binding assay, RARβ; conditions: Kd line of EC50/(EFFICACY)/Kd, read-out: RAR Kd β
T2 sequence (P10826 1-455): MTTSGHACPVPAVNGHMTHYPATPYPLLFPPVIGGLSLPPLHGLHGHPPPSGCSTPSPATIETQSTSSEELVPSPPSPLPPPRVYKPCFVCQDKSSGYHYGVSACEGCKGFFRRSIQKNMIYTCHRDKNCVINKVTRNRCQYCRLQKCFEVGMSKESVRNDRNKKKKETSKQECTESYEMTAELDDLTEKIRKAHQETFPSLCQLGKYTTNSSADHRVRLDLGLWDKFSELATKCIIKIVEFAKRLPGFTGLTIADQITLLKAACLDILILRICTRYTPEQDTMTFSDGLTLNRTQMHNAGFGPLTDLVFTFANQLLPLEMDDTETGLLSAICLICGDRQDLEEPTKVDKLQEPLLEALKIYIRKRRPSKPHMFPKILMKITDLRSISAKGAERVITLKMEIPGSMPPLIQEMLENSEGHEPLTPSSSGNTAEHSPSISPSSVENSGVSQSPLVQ
From the text: (§1) Assays described below measure the ability of a compound to bind to, and/or activate various retinoid receptor subtypes. When in these assays a compound binds to a given receptor subtype and activates the transcription of a reporter gene through that subtype, then the compound is considered an agonist of that receptor subtype. […] In the below described assays the ability of the compounds to bind to RARα, RARβ, RARγ, RXRα, RXRβ and RXRγ receptors, and the ability or inability of the compounds to activate transcription of a reporter gene through these receptor subtypes can be tested.
A holoreceptor transactivation assay and a ligand binding assay which measure the antagonist/agonist like activity of the compounds of the invention, or their ability to bind to the several retinoid receptor subtypes, respectively, are described in published PCT Application No. WO WO93/11755 (particularly on pages 30-33 and 37-41) published on Jun. 24, 1993, the specification of which is also incorporated herein by reference. […] The results obtained in this assay are expressed in EC50 numbers, as they are also in the chimeric receptor transactivation assay. The results of ligand binding assay are expressed in Kd numbers. (See Cheng et al. Biochemical Pharmacology Vol. 22 pp 3099-3108, expressly incorporated herein by reference.)

RARγ = biological target: T3, RARγ (Homo sapiens, UniProt P13631); test: ligand binding assay, RARγ; conditions: Kd line of EC50/(EFFICACY)/Kd, read-out: RAR Kd γ
T3 sequence (P13631 1-454): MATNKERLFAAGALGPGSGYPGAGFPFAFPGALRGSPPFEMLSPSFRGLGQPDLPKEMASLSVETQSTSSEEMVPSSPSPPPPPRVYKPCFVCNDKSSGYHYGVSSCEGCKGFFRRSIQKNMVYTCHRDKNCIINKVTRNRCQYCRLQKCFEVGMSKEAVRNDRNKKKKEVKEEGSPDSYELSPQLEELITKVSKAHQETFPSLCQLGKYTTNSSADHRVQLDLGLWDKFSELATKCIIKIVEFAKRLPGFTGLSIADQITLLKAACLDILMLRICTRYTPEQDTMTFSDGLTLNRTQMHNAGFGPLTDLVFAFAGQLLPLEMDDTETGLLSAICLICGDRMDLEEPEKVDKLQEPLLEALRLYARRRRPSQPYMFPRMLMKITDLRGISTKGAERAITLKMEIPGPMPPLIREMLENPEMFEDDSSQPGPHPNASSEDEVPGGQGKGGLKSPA
From the text: as §1
(§2) A holoreceptor transactivation assay and a ligand binding assay which measure the antagonist/agonist like activity of the compounds of the invention, or their ability to bind to the several retinoid receptor subtypes, respectively, are described in published PCT Application No. WO WO93/11755 (particularly on pages 30-33 and 37-41) published on Jun. 24, 1993, the specification of which is also incorporated herein by reference. A detailed experimental procedure for holoreceptor transactivations has been described by Heyman et al. Cell 68, 397-406, (1992); Allegretto et al. J. Biol. Chem. 268, 26625-26633, and Mangelsdorf et al. The Retinoids: Biology, Chemistry and Medicine, pp 319-349, Raven Press Ltd., New York, which are expressly incorporated herein by reference. The results obtained in this assay are expressed in EC50 numbers, as they are also in the chimeric receptor transactivation assay. The results of ligand binding assay are expressed in Kd numbers. (See Cheng et al. Biochemical Pharmacology Vol. 22 pp 3099-3108, expressly incorporated herein by reference.)
(§3) The results if the ligand binding assay for several preferred compounds of the invention are included in Table 1.

RARα = biological target: T4, RARα (Homo sapiens, UniProt P10276); test: ligand binding assay, RARα; conditions: Kd line of EC50/(EFFICACY)/Kd, read-out: RAR Kd α
T4 sequence (P10276 1-462): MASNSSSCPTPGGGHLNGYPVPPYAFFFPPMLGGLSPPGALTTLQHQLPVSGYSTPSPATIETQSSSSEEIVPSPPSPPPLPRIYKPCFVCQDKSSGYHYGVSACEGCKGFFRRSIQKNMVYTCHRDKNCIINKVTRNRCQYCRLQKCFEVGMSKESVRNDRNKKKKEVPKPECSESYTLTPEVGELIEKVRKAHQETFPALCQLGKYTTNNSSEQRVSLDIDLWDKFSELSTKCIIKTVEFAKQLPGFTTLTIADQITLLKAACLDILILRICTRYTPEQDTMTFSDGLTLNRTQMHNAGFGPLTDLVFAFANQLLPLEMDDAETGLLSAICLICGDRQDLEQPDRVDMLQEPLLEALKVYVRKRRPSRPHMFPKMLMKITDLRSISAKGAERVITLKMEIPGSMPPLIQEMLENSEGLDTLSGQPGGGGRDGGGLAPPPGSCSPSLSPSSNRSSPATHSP
From the text: as §1, §2, §3

SMILES	IC50 (P450RAI-1) [nM]	Cutaneous Toxicity Score (Blackjack Score) (skin of hairless mice; 100 nmole (nmol/25 g))	Cutaneous Toxicity Score (Blackjack Score) (skin of hairless mice; 300 nmole (nmol/25 g))	Cutaneous Toxicity Score (Blackjack Score) (skin of hairless mice; 1000 nmole (nmol/25 g))	Kd (RARβ) [µM]	Kd (RARγ) [nM]	Kd (RARα) [µM]
CN(C1CC1)C1CCC(C)(C)c2cc(C#Cc3ccc(CC(=O)O)c(F)c3)ccc21 (stereo not shown) [Compound 18, [4-(5-(Cyclopropyl-methyl-amino)-8,8-dimethyl-5,6,7,8-tetrahydro-naphthalene-2-yl-ethynyl)-2-fluoro-phenyl]-acetic Acid]	1100	0 ± 0	5 ± 2	10 ± 2	–	–	–
CC1(C)CC(C)(C)c2cc(C#Cc3ccc(CC(=O)O)c(F)c3)cc(C3CC3)c2O1 [Compound 38, [4-(8-Cyclopropyl-2,2,4,4-tetramethyl-chroman-6-yl-ethynyl)-2-fluorophenyl]acetic Acid]	25	1 ± 1	–	10 ± 1	5.32	2880	–
CC1(C)CC2(CC2)Oc2c(C3CC3)cc(C(=O)Oc3ccc(CC(=O)O)cc3)cc21 [Compound 58, Spiro[2H-1-benzopyran-2,1′-cyclopropane]-6-carboxylic Acid, 8-cyclopropyl-3,4-dihydro-4,4-dimethyl-, 4-(carboxymethyl)phenyl Ester]	180	0 ± 0	0 ± 0	0 ± 0	–	–	–
CC1(C)CC2(CC2)Oc2c(C3CC3)cc(C#Cc3ccc(CC(=O)O)cc3)cc21 [Compound 48, Benzeneacetic Acid, 4-[(8-cyclopropyl-3,4-dihydro-4,4-dimethylspiro[2H-1-benzopyran-2,1′-cyclopropane]-6-yl)ethynyl]-]	30	1 ± 1	3 ± 1	7 ± 2	–	–	–
CC1(C)CC2(CC2)Oc2c(C3CC3)cc(C#Cc3ccc(CC(=O)O)c(F)c3)cc21 [Compound 50, 4-[(8-Cyclopropyl-3,4-dihydro-4,4-dimethylspiro[2H-1-benzopyran-2,1′-cyclopropane]-6-yl)ethynyl]-2-fluoro-benzeneacetic Acid]	14	1 ± 0	3 ± 2	8 ± 2	–	–	–
CC1(C)CCC(n2ccnc2)c2ccc(C#Cc3ccc(CC(=O)O)cc3)cc21 (stereo not shown) [Compound 137, [4-(5-Imidazol-1-yl-8,8-dimethyl-5,6,7,8-tetrahydro-naphthalen-2-yl-ethynyl)-phenyl]-acetic Acid]	100	1 ± 1	1 ± 1	5 ± 2	–	–	–
CC1(C)CC(C)(C)c2cc(C#Cc3ccc(CC(=O)O)cc3)cc(C3CC3)c2O1 [Compound 36, [4-(8-Cyclopropyl-2,2,4,4-tetramethyl-chroman-6-yl-ethynyl)phenyl]acetic Acid]	33	1 ± 1	–	11 ± 0	4.9	492	13

Reference: patent US6369225B1, “Compounds having activity as inhibitors of cytochrome P450RAI” (Allergan Sales, Inc., priority 2000, dated 2002)
